# pEC50: −log10 of the molar value. “Also recorded” adds a separate entry of the source. Where two headings read alike, the source gives them in different places.
# What was measured:
# T. b. brucei = experiment: Trypanosome proliferation assay; assay type: cell-based, Trypanosoma brucei brucei; conditions: for pEC50: Trypanosoma brucei, read-out: EC50 T. b. brucei; for fold loss of activity (T. b. brucei EC50): relative to the comparator compound
# Experimental: (§1) Trypanosome and MRC5 proliferation assay: Measurement of inhibition of the proliferation of MRC5 cells (human lung fibroblasts) and T. brucei bloodstream-stage cells was performed using a modification of a cell viability assay previously described.[35, 36] Compounds ([…] to 0.5 nM) were incubated with 2×10^3 cells per well in 0.2 mL of the appropriate culture medium (MEM with 10 % foetal bovine serum for MRC5 cells) in clear 96-well plates. Plates were incubated at 37 °C in the presence of 5 % CO2 for 69 h. Resazurin was then added to a final concentration of 50 μM, and plates were incubated as above for a further 4 h before being read on a BioTek Flx800 fluorescence plate reader.
# [1] = tested on: MRC5 cells (human lung fibroblasts); experiment: MRC5 proliferation assay; assay type: cell-based; conditions: geometric mean of two or more determinations
# Experimental: as §1
# [2] = Kinetic aqueous solubility (laser nephelometry); assay type: physicochemical; conditions: Milli-Q water with 2.5% DMSO, kinetic from dmso stock, range 250–12 μM, read-out: Aq. Sol. (aqueous kinetic solubility)
# Experimental: Solubility experiments: The kinetic aqueous solubility of the test compounds was measured using laser nephelometry. Compounds were subject to serial dilution from 10 mM to 0.5 mM in DMSO. An aliquot was then mixed with Milli-Q H2O to obtain an aqueous dilution plate with a final concentration range of 250–12 μM, with a final DMSO concentration of 2.5 %. Triplicate aliquots were transferred to a flat-bottomed polystyrene plate which was immediately read on the NEPHELOstar (BMG Lab Technologies). The amount of laser scatter caused by insoluble particulates (relative nephelometry units, RNU) was plotted against compound concentration using a segmental regression fit, with the point of inflection being quoted as the compounds′ aqueous solubility (in μM).
# [3] = tested on: T. brucei bloodstream-stage cells; experiment: Static–cidal (SC) assay; assay type: cell-based, Trypanosoma brucei brucei; conditions: for pEC50 / MCC: Trypanosoma brucei; for pEC50: 48 h; for MCC: read-out: MCC (minimal cidal concentration); for Mode: static/cidal classification from growth curves; for mode of antiparasitic effect (in words): text and figure legend, at concentrations tested; for plateau of dose–response curve (inhibition): static–cidal dose–response curve
# Experimental: Determination of cidality against T. brucei bloodstream-stage cells was performed using a static–cidal (SC) assay as previously reported.[26] Briefly, bloodstream-form trypanosomes were seeded into 384-well plates at 4×10^5 mL^−1 (50 μL per well), followed by immediate addition of resazurin (50 μM final) to one of the plates, and all plates were incubated at 37 °C, 5 % CO2. After 4 h the t0 plate was read using a PerkinElmer Victor 3 plate reader (λex=528 nm, λem=590 nm). The second plate was processed in the same manner 20 h later, and at 44 h the last plate was processed. The minimum cidal concentration (MCC) is defined as the lowest concentration of drug that results in a decrease of resorufin signal over time. For dose–response curves from this assay either a monophasic or a biphasic equation was used, depending on which one provided the best fit. For monophasic fits, the following four-parametric equation [Eq. (1)] was used:
# in which A=percent inhibition at bottom, B=percent inhibition at top, C=EC50, D=slope, x=inhibitor concentration, and y=percent inhibition. Equation (2) was used for biphasic fits:
# for which A=percent inhibition at mid-plateau, B=slope, C=log[SC EC50(1)], D=log[SC EC50(2)]. Thus SC EC50(1) is the EC50 for the first phase of the curve, and SC EC50(2) is that for the second phase. Inhibition at the bottom of the curve is fixed at 0 % and at the top, 100 %.
# [4] = Plasma protein binding (equilibrium dialysis); assay type: in vitro ADME; conditions: female, CD1; mouse plasma, equilibrium dialysis; read-out: PPB
# Experimental: Plasma protein binding experiments: In brief, a 96-well equilibrium dialysis apparatus was used to determine the free fraction in plasma for each compound (HT Dialysis LLC, Gales Ferry, CT, USA). Membranes (12-14 kDa cutoff) were conditioned in deionised H2O for 60 min, followed by conditioning in 80:20 deionised H2O/EtOH for 20 min, and then rinsed in isotonic buffer before use. Female CD1 mouse plasma was removed from the freezer and allowed to thaw on the day of experiment. Thawed plasma was then centrifuged (Allegra […], Beckman Coulter, USA), spiked with test compound (10 μg g^-1), and 150 μL aliquots (n=6 replicate determinations) loaded into the 96-well equilibrium dialysis plate. Dialysis against isotonic buffer (150 μL) was carried out for 5 h in a temperature-controlled incubator at ∼37 °C (Barworld Scientific Ltd., UK) using an orbital microplate shaker at 125 rpm (Barworld Scientific). At the end of the incubation period, aliquots of plasma or buffer were transferred to micronic tubes (Micronic B.V., the Netherlands), and the composition in each tube was balanced with control fluid such that the volume of buffer to plasma is the same. Sample extraction was performed by the addition of 400 μL MeCN containing an appropriate internal standard. Samples were allowed to mix for 1 min and then centrifuged at 3000 rpm in 96-well blocks for 15 min (Allegra […], Beckman Coulter, USA). All samples were analysed by UPLC-MS/MS on a Quattro Premier XE Mass Spectrometer (Waters Corp.). The unbound fraction was determined as the ratio of the peak area in buffer to that in plasma.
# [5] = geometric mean of two or more determinations, standard cell viability (resazurin) assay
# [6] = static cidal EC50, first site/phase, read-out: SC EC50(1)
# [7] = static cidal EC50, second site/phase, read-out: SC EC50(2)
# [8] = static–cidal assay in triplicate
SMILES,pEC50 (T. b. brucei; [5]),pEC50 [1],fold loss of activity (T. b. brucei EC50) (T. b. brucei),other results
COCc1ccccc1-c1cnc2[nH]nc(C3CCCCC3)c2c1 [Compound 62],5.59,< 4.30,–,–
CNC(=O)c1ccc(-c2cnc3[nH]c(=O)n(C4CCCCC4)c3n2)cc1 [Compound 22],5.77,< 4.30,30 fold,–
O=c1[nH]c2ncc(-c3cccc(CO)c3)nc2n1C1CCCCC1 [Compound 24],7.52,< 4.30,–,"solubility kinetic [2]: > 250 µM; pEC50 [3, 6]: 7.15; pEC50 [3, 7]: 4.52; MCC [3, 8]: > 50000 nM; Mode [3]: S; mode of antiparasitic effect (in words) [3]: growth-slowing or static behaviour; also recorded: static at concentration tested"
OCc1ccccc1-c1cnc2[nH]nc(C3CCCCC3)c2c1 [Compound 61],5.89,< 4.30,–,–
O=c1[nH]c2ncc(-c3ccc(CO)cc3)nc2n1C1CCCCC1 [Compound 21],6.40,< 4.30,10 fold,"fraction unbound at 5 h, 10 μg g^−1 [4]: 0.047"
O=c1[nH]c2ncc(N3CCOCC3)nc2n1C1CCCCC1 [Compound 32],7.30,< 4.30,–,solubility kinetic [2]: 220 µM
C[C@H](c1ccccc1)n1c(=O)[nH]c2ccc(-c3ccc(F)cc3)cc21 [Compound 47],5.00,–,100 fold,–
O=c1[nH]c2ncc(-c3ccccc3)nc2n1-c1ccccc1 [Compound 37],< 4.30,< 4.30,–,–
CN1CCC(n2c(=O)[nH]c3ncc(-c4ccccc4)nc32)CC1 [Compound 42],5.70,< 4.30,–,–
C[C@H](c1ccccc1)n1c(=O)[nH]c2ncc(-c3ccc(O)cc3)nc21 [Compound 3],6.05,–,–,–
C[C@H](c1ccccc1)n1c(=O)[nH]c2ncc(-c3cccc(F)c3)nc21 [Compound 17],6.52,4.36,–,–
O=c1[nH]c2ncc(-c3ccccc3CO)cc2n1C1CCCCC1 [Compound 53],6.17,< 4.30,~13 fold,–
"Nc1nc(N)nc(Nc2ccc([As]3SCC(CO)S3)cc2)n1 (centres unmarked) [melarsoprol, reference compound]",–,–,–,pEC50 (T. b. brucei): 8.05; pEC50 ([3]; read-out: SC EC50(1)): 7.51; MCC [3]: 100 nM; plateau of dose–response curve (inhibition) [3]: 100 % inhibition
COCCCn1c(=O)[nH]c2ncc(-c3ccc(OC(F)(F)F)cc3)nc21 [Compound 2],6.30,4.82,–,–
C[C@H](c1ccccc1)n1c(=O)[nH]c2ncc(-c3ccc(OC(F)(F)F)cc3)nc21 [Compound 15],6.00,4.41,10 fold,–
CC(C)(c1ccccc1)n1c(=O)[nH]c2ncc(-c3ccccc3CO)cc21 [Compound 54],4.82,< 4.30,–,–
CN1CCN(c2cnc3[nH]c(=O)n(C4CCCCC4)c3n2)CC1 [Compound 33],5.70,< 4.30,50 fold,–
O=c1[nH]c2ncc(-c3ccccc3F)nc2n1C1CCCCC1 [Compound 26],7.22,< 4.30,–,"solubility kinetic [2]: 20 µM; fraction unbound at 5 h, 10 μg g^−1 [4]: 0.007; pEC50 [3, 6]: 7.05; MCC [3, 8]: > 50000 nM; mode of antiparasitic effect (in words) [3]: growth-slowing or static behaviour"

SMILES,pEC50 (T. b. brucei; [5]),pEC50 [1],fold loss of activity (T. b. brucei EC50) (T. b. brucei),other results
O=c1[nH]c2ncc(N3CCOCC3)cc2n1C1CCCCC1 [Compound 57],6.48,< 4.30,~7 fold,–
CN(C)CCn1c(=O)[nH]c2ncc(-c3ccccc3)nc21 [Compound 41],4.89,< 4.30,–,–
C[C@@H](c1ccccc1)n1c(=O)[nH]c2ncc(-c3ccc(F)cc3)nc21 [Compound 8],7.05,< 4.30,–,–
CN(C)Cc1ccc(-c2cnc3[nH]c(=O)n(C4CCCCC4)c3n2)cc1 [Compound 23],5.30,< 4.30,50 fold,–
"O=c1[nH]c2ncc(-c3ccc(F)cc3)nc2n1Cc1ccccc1 [Compound 9, 1-Benzyl-6-(4-fluorophenyl)-1H-imidazo[4,5-b]pyrazin-2(3H)-one]",6.30,< 4.30,–,–
C[C@H](c1ccccc1)n1c(=O)[nH]c2nccnc21 [Compound 16],4.44,< 4.30,> 300 fold,–
CC(C)n1c(=O)[nH]c2ncc(-c3ccccc3)nc21 [Compound 36],6.52,< 4.30,10 fold,–
CC(C)(c1ccccc1)n1c(=O)[nH]c2ncc(-c3cccnc3)cc21 [Compound 52],6.10,4.64,–,–
COc1ccccc1-c1cnc2[nH]c(=O)n(C3CCCCC3)c2n1 [Compound 27],6.05,< 4.30,–,–
"N=C(N)c1ccc(OCCCCCOc2ccc(C(=N)N)cc2)cc1 [pentamidine, reference compound]",8.40,–,–,"pEC50 [3, 6]: 7.72; MCC [3, 8]: 100 nM; plateau of dose–response curve (inhibition) [3]: 100 % inhibition; mode of antiparasitic effect (in words) [3]: cidal"
CC(=O)Nc1cccc(-c2cnc3[nH]c(=O)n(C4CCCCC4)c3n2)c1 [Compound 25],6.05,< 4.30,–,–
O=c1[nH]c2ncc(-c3ccncc3)nc2n1C1CCCCC1 [Compound 29],7.15,< 4.30,–,–
CCC(CO)n1c(=O)[nH]c2ncc(-c3ccccc3)nc21 (centres unmarked) [Compound 40],6.30,< 4.30,~10 fold,–
Cn1c(=O)[nH]c2ncc(-c3ccc(F)cc3)nc21 [Compound 11],4.40,< 4.30,100 fold,–
"COCC(C)n1c(=O)[nH]c2ncc(-c3ccccc3)nc21 (centres unmarked) [Compound 39, 1-(1-Methoxypropan-2-yl)-6-phenyl-1H-imidazo[4,5-b]pyrazin-2(3H)-one]",6.70,< 4.30,–,"pEC50 [3, 6]: 6.39; pEC50 [3, 7]: 4.49; MCC [3, 8]: > 50000 nM; Mode [3]: S; mode of antiparasitic effect (in words) [3]: growth-slowing or static behaviour"
COc1ccc(-c2cnc3[nH]c(=O)n(C4CCCCC4)c3n2)cc1 [Compound 20],6.48,4.62,–,"fraction unbound at 5 h, 10 μg g^−1 [4]: 0.007"
C[C@H](c1ccccc1)n1c(=O)n(C)c2ncc(-c3ccc(F)cc3)nc21 [Compound 48],5.10,–,100 fold,–
